# What was measured:
# Format in all cases: cell-based, human
# [1] = test system: PTEN; experiment: Quantitative real-time PCR, PTEN expression in A2780/C30 cells
# Protocol: (§1) Evaluations of selected gene expressions in Human Umbilical Vein Endothelial Cells (HUVEC) and Human Ovarian Cancer Cells by quantitative reverse transcriptase polymerase chain reaction (PCR)
# (§2) Quantitative real-time PCR experiments were performed to estimate the expression of a selection of targeted genes. HUVEC cells (Lonza Walkersville, Frederick, Md.) were cultured on 0.1% gelatin-coated petri dishes by following standard protocols recommended by the vendor in a humidified incubator by maintaining 5% CO2 at 37° C. […]
# (§3) Both treated and untreated cancer cells were maintained in RPMI 1640 medium with 10% fetal bovine serum, 2 μmol L-glutamine, 100 units/mL penicillin-streptomycin and 0.25 units/mL insulin solution, at 37° C. with 5% CO2. […] The quantity and purity of RNA were determined by UV spectroscopy (NanoDrop 2000 Thermo Scientific, Wilmington, Del.). A minimum absorbance ratio index (ratio of the absorbance measured at 260 nm over that at 280 nm) of 1.9 was used as an acceptable purity. […] The target gene was labeled with a blue dye (FAM, absorbance: 494 nm, emission: 518 nm) while the reference gene was tagged with a green dye (VIC, absorbance: 538 nm, emission: 554 nm). […]
# (§4) The threshold cycle number (Ct), the point at which the fluorescence of the qPCR reaction just exceeds the threshold fluorescence of the detection system, was determined. […]
# [2] = test system: BAX; experiment: Expression of key genes with and without p53 inhibitor (Table 3): BAX; conditions: positive = manifold increase, negative = decrease vs untreated cells
# Protocol: (§5) Quantitative real-time PCR experiments were performed to estimate the expression of a selection of targeted genes. HUVEC cells (Lonza Walkersville, Frederick, Md.) were cultured on 0.1% gelatin-coated petri dishes by following standard protocols recommended by the vendor in a humidified incubator by maintaining 5% CO2 at 37° C. Human epithelial ovarian cancer cells (A2780) and cisplatin-resistant cells (A2780/C30) were cultured in RPMI 1640 with or without cisplatin (7 μM) and pyrodach-4 (180 μM) for 0, 3, 12 and 24 hours. […] HUVECs were treated with or without cisplatin (7 μM) or pyrodach-4 (90 or 180 μM) for various durations ranging from 1 hr. to 6 hrs.
# as §3, with “CO2. RNA was isolated from both the treated and untreated cells.” for “CO2.”
# [3] = test system: Bcl-2; experiment: Expression of key genes with and without p53 inhibitor (Table 3): Bcl-2; conditions: positive = manifold increase, negative = decrease vs untreated cells
# Protocol: as §5
# as §3, with “CO2. RNA was isolated from both the treated and untreated cells.” for “CO2.”
# [4] = test system: Caspase 3; experiment: Expression of key genes with and without p53 inhibitor (Table 3): Caspase 3; conditions: positive = manifold increase, negative = decrease vs untreated cells
# Protocol: as §5
# as §3, with “CO2. RNA was isolated from both the treated and untreated cells.” for “CO2.”
# [5] = test system: Caspase 9; experiment: Expression of key genes with and without p53 inhibitor (Table 3): Caspase 9; conditions: positive = manifold increase, negative = decrease vs untreated cells
# Protocol: as §5
# as §3, with “CO2. RNA was isolated from both the treated and untreated cells.” for “CO2.”
# [6] = test system: Fas; experiment: Expression of key genes with and without p53 inhibitor (Table 3): Fas; conditions: positive = manifold increase, negative = decrease vs untreated cells
# Protocol: as §5
# as §3, with “CO2. RNA was isolated from both the treated and untreated cells.” for “CO2.”
# [7] = test system: Fas; experiment: Quantitative real-time PCR, Fas expression in HUVEC; conditions: HUVEC treated with pyrodach-4
# Protocol: as §1, §2, §3, §4
# [8] = test system: FasL; experiment: Quantitative real-time PCR, FasL expression in HUVEC; conditions: HUVEC treated with pyrodach-4
# Protocol: as §1, §2, §3, §4
# [9] = test system: caspase-3; experiment: Quantitative real-time PCR, caspase-3 expression in HUVEC; conditions: HUVEC treated with pyrodach-4
# Protocol: as §1, §2, §3, §4
# [10] = test system: E-cadherin; experiment: Immunofluorescent labeling of E-cadherin protein in A2780 cells; conditions: 24 hr treatment at or below IC50 concentration
# Protocol: Left panels show E-cadherin bound to its antibody labeled with FITC (green). The middle and right panels represent nuclei stained with Prolong® Gold Antifade Reagent with 4′-6-Diamidino-2-phenylindole (DAPI, a nuclear stain) and merger of the left and middle panels (see Example 5 below for details).
# Cells were grown on multi-chamber slide systems (Lab-Tek™, Nunc, Denmark). These cells were treated with pyrodach-4 at or below IC50 concentrations for 24 hours. Untreated cells were used as a control while treated and untreated cells without primary antibody labeling were used as negative controls. […] The Fas and E-cadherin proteins were detected via direct labeling using anti-Fas (FITC labeled, Santa Cruz Biotechnology, Inc., Santa Cruz, Calif.) and anti-E-cadherin (FITC labeled, BD Transduction Laboratories, Franklin Lakes, N.J.) fluorescently tagged antibodies. Other proteins, p53, BAX and PUMA were detected indirectly with fluorescently labeled secondary antibodies (Texas Red-conjugated anti-mouse IgG for p53 and Fluorescein-conjugated anti-rabbit IgG for BAX and PUMA, obtained from Vector Labs, Burlingame, Calif.) at 1:1000 dilution. […] The stain was cured for 24 hours before fluorescence images were acquired. […]
substance,measurement,setting,value
"trans-(±)-1,2-cyclohexanediamine-trans-dihydroxo(pyrophosphato) platinum(IV) [Pyrodach-4]",Expression of the PTEN gene compared to control,[1],2.3 fold
same,Normalized expression of PTEN,"[1]; pyrodach-4 alone, control = 1.0",2.3
same,Expression of BAX,[2]; Pyrodach-4 + PFT-α (p53 inhibitor),1.0
same,Expression of BAX,"[2]; Pyrodach-4 treatment only, cell line not given",2.8
same,Expression of Bcl-2,[3]; Pyrodach-4 + PFT-α,−2.0
same,Expression of Bcl-2,[3]; Pyrodach-4 treatment only,1.0
same,Expression of Caspase 3,[4]; Pyrodach-4 + PFT-α,−1.2
same,Expression of Caspase 3,[4]; Pyrodach-4 treatment only,2.6
same,Expression of Caspase 9,[5]; Pyrodach-4 + PFT-α,1.0
same,Expression of Caspase 9,[5]; Pyrodach-4 treatment only,2.0
same,Expression of Fas,[6]; Pyrodach-4 + PFT-α,5.5
same,Expression of Fas,[6]; Pyrodach-4 treatment only,11.0
same,Over-expression of Fas,[7],2-5 fold
same,Over-expression of FasL,[8],2-4 fold
same,Over-expression of caspase-3,[9],2-3 fold
same,Diffusivity of E-cadherin (immunofluorescence),[10],reduces the diffusivity
same,Expression of E-cadherin protein (immunofluorescence),[10],increases the expression

# — US20130236568A1, “PHOSPHAPLATINS HAVING ANTI-ANGIOGENIC, ANTI-METASTATIC, AND PRO-APOPTOTIC PROPERTIES AND USES THEREOF” (Ohio University, priority 2011, published 2013)
